The supplement of paper PMC10307832

Experiments:
Assay in all cases: relative viability (nuclei count vs DMSO), 5 days (fraction); higher = more cells survive
Motesanib + OSI-027 = compound: CC1(C)CNc2cc(NC(=O)c3cccnc3NCc3ccncc3)ccc21 [Motesanib] + COc1cccc2cc(-c3nc([C@H]4CC[C@H](C(=O)O)CC4)n4ncnc(N)c34)[nH]c12 [OSI-027] (partner 0.5 µM)
Method in brief: (§1)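 Relative viability was taken as the ratio of nuclei in treated wells to nuclei in vehicle wells. Lung cancer cell lines in 1536-well plates received compounds by pin tool one day after seeding, either one drug alone or a fixed anchor-drug dose plus five library-drug doses (not always all listed) in √10 steps. Nuclei were counted on 4× images after 5 days of treatment, and values are medians of duplicate plates.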

[1] = compound: C[C@@]1(C(=O)Nc2ccc(F)nc2)CCCN1c1nc(Nc2cc(C3CC3)n[nH]2)c2cccn2n1 + NC(=O)Nc1cc(-c2cccc(F)c2)sc1C(=O)N[C@H]1CCCNC1 [AZD7762] (partner 0.2 µM)
Method in brief: as §1

[2] = compound: C[C@@]1(C(=O)Nc2ccc(F)nc2)CCCN1c1nc(Nc2cc(C3CC3)n[nH]2)c2cccn2n1 + CCNC(=O)c1noc(-c2cc(C(C)C)c(O)cc2O)c1-c1ccc(CN2CCOCC2)cc1 [Luminespib] (partner 0.01 µM)
Method in brief: as §1

[3] = compound: C[C@@]1(C(=O)Nc2ccc(F)nc2)CCCN1c1nc(Nc2cc(C3CC3)n[nH]2)c2cccn2n1 + CS(=O)(=O)CCNCc1ccc(-c2ccc3ncnc(Nc4ccc(OCc5cccc(F)c5)c(Cl)c4)c3c2)o1 [Lapatinib] (partner 2 µM)
Method in brief: as §1

| Cell Line | relative viability (Motesanib + OSI-027; first compound 0.01 µM) | relative viability (Motesanib + OSI-027; first compound 0.03162 µM) | relative viability (Motesanib + OSI-027; first compound 0.1 µM) | relative viability (Motesanib + OSI-027; first compound 0.3162 µM) | relative viability (Motesanib + OSI-027; first compound 1 µM) | relative viability ([1]; first compound 0.04 µM) | relative viability ([1]; first compound 0.1265 µM) | relative viability ([1]; first compound 0.4 µM) | relative viability ([1]; first compound 1.265 µM) | relative viability ([2]; first compound 0.04 µM) | relative viability ([2]; first compound 0.1265 µM) | relative viability ([2]; first compound 0.4 µM) | relative viability ([2]; first compound 1.265 µM) | relative viability ([3]; first compound 0.04 µM) | relative viability ([3]; first compound 0.1265 µM) | relative viability ([3]; first compound 0.4 µM) | relative viability ([3]; first compound 1.265 µM) |
| --- | --- | --- | --- | --- | --- | --- | --- | --- | --- | --- | --- | --- | --- | --- | --- | --- | --- |
| LXF-289 | 0.708 | 0.841 | 0.857 | 0.912 | 0.886 | 1.1 | 1.03 | 0.968 | 1.12 | 0.64 | 0.563 | 0.511 | 0.611 | 0.914 | 0.856 | 0.831 | 0.802 |
| NCI-H23 | 0.602 | 0.593 | 0.609 | 0.675 | 0.614 | 0.238 | 0.208 | 0.193 | 0.114 | 0.21 | 0.211 | 0.213 | 0.214 | 0.958 | 0.496 | 0.695 | 0.6 |
| NCI-H322M | 0.471 | 0.584 | 0.506 | 0.584 | 0.566 | 0.45 | 0.424 | 0.492 | 0.35 | 0.583 | 0.405 | 0.406 | 0.566 | 0.533 | 0.441 | 0.374 | 0.341 |
| NCI-H358 | 0.9 | 0.802 | 0.767 | 0.906 | 0.716 | 0.389 | 0.392 | 0.171 | 0.282 | 0.35 | 0.143 | 0.111 | 0.238 | 0.304 | 0.22 | 0.259 | 0.251 |
| NCI-H460 | 0.616 | 0.633 | 0.619 | 0.635 | 0.632 | 0.737 | 0.667 | 0.609 | 0.649 | 0.0318 | 0.0246 | 0.0368 | 0.0359 | 1.05 | 0.798 | 0.886 | 0.829 |
| NCI-H596 | 0.913 | 0.772 | 0.732 | 0.6 | 0.75 | 1.1 | 1.07 | 0.94 | 1.19 | 0.819 | 0.885 | 0.88 | 1.17 | 1.04 | 0.849 | 0.848 | 0.783 |
| NCI-H647 | 0.848 | 0.528 | 0.578 | 0.717 | 0.557 | 0.402 | 0.591 | 0.452 | 0.32 | 0.152 | 0.245 | 0.181 | 0.164 | 1.07 | 1.03 | 0.84 | 0.457 |
| NCI-H650 | 0.529 |  | 0.539 | 0.574 | 0.537 | 1.16 | 0.609 | 0.729 | 0.828 | 0.797 | 0.426 | 0.536 | 0.499 | 0.853 | 0.828 | 0.625 | 0.55 |
| NCI-H727 | 0.539 | 0.767 | 0.833 | 0.555 | 0.425 | 0.573 | 0.386 | 0.443 | 0.345 | 0.34 | 0.319 | 0.249 | 0.249 | 0.692 | 0.371 | 0.247 | 0.294 |
| NCI-H838 | 0.448 | 0.313 | 0.394 | 0.438 | 0.415 | 0.981 | 0.918 | 0.814 | 0.872 | 0.296 | 0.291 | 0.183 | 0.338 | 0.895 | 0.85 | 0.597 | 0.622 |
| NCI-H1355 | 0.411 | 0.424 | 0.39 | 0.414 | 0.431 | 0.694 | 0.579 | 0.539 | 0.598 | 0.669 | 0.517 | 0.577 | 0.696 | 0.908 | 0.831 | 0.711 | 0.654 |
| NCI-H1395 | 0.576 | 0.579 | 0.658 | 0.636 | 0.564 | 0.395 | 0.416 | 0.396 | 0.364 | 0.768 | 0.717 | 0.583 | 0.889 | 1.17 | 0.86 | 0.885 | 0.988 |
| NCI-H1437 | 0.872 | 0.899 | 0.903 | 0.803 | 0.856 | 1 | 1.25 | 0.688 | 0.745 | 1.18 | 1.19 | 1.01 | 1.02 | 0.626 | 0.445 | 0.369 | 0.496 |
| NCI-H1651 | 0.848 | 0.663 | 0.628 | 0.652 | 0.615 | 0.52 | 0.371 | 0.409 | 0.447 | 0.916 | 0.715 | 0.768 | 0.71 | 0.707 | 0.706 | 0.693 | 0.746 |
| NCI-H1666 | 0.784 | 0.816 | 0.894 | 0.937 | 0.859 | 0.838 | 0.667 | 0.642 | 0.552 | 0.915 | 0.932 | 0.825 | 0.812 | 0.455 | 0.391 | 0.237 | 0.296 |
| NCI-H1734 | 0.659 | 0.602 |  | 0.58 | 0.527 | 0.54 | 0.459 | 0.377 | 0.446 | 0.201 | 0.161 | 0.159 | 0.157 | 1 | 0.814 | 0.817 | 0.98 |
| NCI-H1755 | 0.661 | 0.682 | 0.746 | 0.826 | 0.652 | 0.481 | 0.424 | 0.378 | 0.406 | 0.616 | 0.357 | 0.406 | 0.437 | 1.02 | 0.864 | 0.858 | 0.994 |
